# Source: US20200345746A1, “Oxazine Derivative for Use in the Prevention of Alzheimer's Disease in at Risk Patents” (Novartis AG, priority 2016, published 2020)
# What was measured:
# Aβ42 [1] = assay: Acute PK/PD in APOE4-TR mice: Aβ42 in CSF; type: in vivo, mouse; settings: for Average Aβ42 CSF ± SD: n = 6
# Description: Compound 1 was formulated as a suspension. Vehicle or compound was given by oral administration in a volume of 10 ml/kg once. Vehicle: 0.1% Tween80 in 0.5% Methylcellulose in water.
# Analysis of Aβ40 in Mouse Brain and Aβ40 and Aβ42 in CSF
# Aβ40 = assay: First-in-human study: Aβ40 in CSF; type: in vivo; settings: for Aβ40 % change from baseline, Mean (SD) / Aβ40 % change from baseline, Median: CSF, 2 weeks; for lowering of CSF Aβ40 concentrations, up to: healthy elderly subjects
# Description: (§1) The purpose of this study was to determine the single and multiple maximum tolerated dose of Compound 1 and to assess the pharmacokinetic/pharmacodynamic (PK/PD) relationship using Aβ in CSF as primary PD biomarker.
# Pharmacodynamic assessments using Aβ concentrations in CSF as primary biomarker of drug action were also been applied in healthy elderly subjects. Dose-dependent lowering of Aβ40 concentrations was determined up to approximately 80% and 90% after single and multiple dosing, respectively (Tables 14 and 15, FIG. 9).
# (§2) In the completed first-in-human and 3-month dose-ranging safety and tolerability clinical studies described in Examples 5 and 6, Aβ concentrations in CSF were obtained by means of lumbar punctures before the first dose (baseline) and respectively after 2 weeks and 3 months of multiple dosing. ApoE4 genotype also was obtained in the subjects who consented. The percent change from baseline in Aβ40 and Aβ42 concentrations was calculated in subjects who took the study treatment and had no major protocol deviation with potential impact on the evaluation of the pharmacodynamic effect. Tables 18 to 21 below provide summary statistics of the percent change from baseline by treatment group and ApoE genotype (E4 heterozygotes versus E4 non-carriers). Only one subject with CSF data was E4 homozygote (from the 3-month dose-ranging safety and tolerability study).
# Aβ42 [2] = assay: First-in-human study: Aβ42 in CSF; type: in vivo; settings: 2 weeks
# Text: as §1, §2
# [3] = multiple-dose 10 mg, Day 15 (24 h post last dose)
# [4] = multiple-dose 30 mg, Day 15 (24 h post last dose)
# [5] = multiple-dose 90 mg, Day 15 (24 h post last dose)
# [6] = multiple-dose 300 mg, Day 15 (24 h post last dose)
smiles,measurement,setting,value
"C[C@@]1(c2nc(NC(=O)c3ncc(C(F)(F)F)cc3Cl)ccc2F)CO[C@@](C)(C(F)(F)F)C(N)=N1 [Compound 1, N-(6-((3R,6R)-5-amino-3,6-dimethyl-6-(trifluoromethyl)-3,6-dihydro-2H-1,4-oxazin-3-yl)-5-fluoropyridin-2-yl)-3-chloro-5-(trifluoromethyl)picolinamide]",Mini AUEC (CSF Aβ42),Aβ42 [1]; 3 μmol/kg acute,38%
same,Average Aβ42 CSF ± SD,"Aβ42 [1]; 3 μmol/kg acute p.o., 4 h",0.0524 ± 0.02173 pmol/mL
same,Average Aβ42 CSF ± SD,"Aβ42 [1]; 3 μmol/kg acute p.o., 24 h",0.09317 ± 0.05304 pmol/mL
same,% reduction vs vehicle (CSF Aβ42),"Aβ42 [1]; 3 μmol/kg acute, 4 h",55%
same,% reduction vs vehicle (CSF Aβ42),"Aβ42 [1]; 3 μmol/kg acute, 24 h",21%
same,Mini AUEC (CSF Aβ42),Aβ42 [1]; 10 μmol/kg acute,50%
same,Average Aβ42 CSF ± SD,"Aβ42 [1]; 10 μmol/kg acute p.o., 4 h",0.02318 ± 0.00446 pmol/mL
same,Average Aβ42 CSF ± SD,"Aβ42 [1]; 10 μmol/kg acute p.o., 24 h",0.09438 ± 0.09019 pmol/mL
same,% reduction vs vehicle (CSF Aβ42),"Aβ42 [1]; 10 μmol/kg acute, 4 h",80%
same,% reduction vs vehicle (CSF Aβ42),"Aβ42 [1]; 10 μmol/kg acute, 24 h",20%
same,Mini AUEC (CSF Aβ42),Aβ42 [1]; 30 μmol/kg acute,81%
same,Average Aβ42 CSF ± SD,"Aβ42 [1]; 30 μmol/kg acute p.o., 4 h",0.0080 ± 0.00395 pmol/mL
same,Average Aβ42 CSF ± SD,"Aβ42 [1]; 30 μmol/kg acute p.o., 24 h",0.03717 ± 0.02438 pmol/mL
same,% reduction vs vehicle (CSF Aβ42),"Aβ42 [1]; 30 μmol/kg acute, 4 h",93%
same,% reduction vs vehicle (CSF Aβ42),"Aβ42 [1]; 30 μmol/kg acute, 24 h",68%
same,"Aβ40 % change from baseline, Mean (SD)","Aβ40; 10 mg, E4 heterozygotes",−56 (10) %
same,"Aβ40 % change from baseline, Median","Aβ40; 10 mg, E4 heterozygotes",−53%
same,"Aβ40 % change from baseline, Mean (SD)","Aβ40; 10 mg, E4 non-carriers",−59 (7) %
same,"Aβ40 % change from baseline, Median","Aβ40; 10 mg, E4 non-carriers",−61%
same,"Aβ40 % change from baseline, Mean (SD)","Aβ40; 30 mg, E4 non-carriers",−80 (4) %
same,"Aβ40 % change from baseline, Median","Aβ40; 30 mg, E4 non-carriers",−81%
same,"Aβ40 % change from baseline, Mean (SD)","Aβ40; 90 mg, E4 heterozygotes",−90 (2) %
same,"Aβ40 % change from baseline, Median","Aβ40; 90 mg, E4 heterozygotes",−90%
same,"Aβ40 % change from baseline, Mean (SD)","Aβ40; 90 mg, E4 non-carriers",−89 (2) %
same,"Aβ40 % change from baseline, Median","Aβ40; 90 mg, E4 non-carriers",−90%
same,"Aβ40 % change from baseline, Mean (SD)","Aβ40; 300 mg, E4 heterozygotes (n 1)",−93%
same,"Aβ40 % change from baseline, Median","Aβ40; 300 mg, E4 heterozygotes (n 1)",−93%
same,"Aβ40 % change from baseline, Mean (SD)","Aβ40; 300 mg, E4 non-carriers",−94 (1) %
same,"Aβ40 % change from baseline, Median","Aβ40; 300 mg, E4 non-carriers",−94%
same,"lowering of CSF Aβ40 concentrations, up to",Aβ40; multiple dosing,~90%
same,"lowering of CSF Aβ40 concentrations, up to",Aβ40; single dosing,approximately 80%
same,"Aβ40 in CSF percent change from baseline, Mean (SD)",Aβ40; [3],−60.1 (9.91) %
same,"Aβ40 in CSF percent change from baseline, Median",Aβ40; [3],−61.5%
same,"Aβ40 in CSF percent change from baseline, Mean (SD)",Aβ40; [4],−80.0 (3.89) %
same,"Aβ40 in CSF percent change from baseline, Median",Aβ40; [4],−80.2%
same,"Aβ40 in CSF percent change from baseline, Mean (SD)",Aβ40; [5],−88.2 (3.07) %
same,"Aβ40 in CSF percent change from baseline, Median",Aβ40; [5],−89.1%
same,"Aβ40 in CSF percent change from baseline, Mean (SD)",Aβ40; [6],−93.6 (0.61) %
same,"Aβ40 in CSF percent change from baseline, Median",Aβ40; [6],−93.5%
same,"Aβ40 in CSF percent change from baseline, Mean (SD)","Aβ40; single-dose 10 mg, 12 h",−11.6 (8.31) %
same,"Aβ40 in CSF percent change from baseline, Median","Aβ40; single-dose 10 mg, 12 h",−12.5%
same,"Aβ40 in CSF percent change from baseline, Min-Max","Aβ40; single-dose 10 mg, 12 h",−21-1%
same,"Aβ40 in CSF percent change from baseline, Mean (SD)","Aβ40; single-dose 10 mg, 24 h",−15.0 (10.21) %
same,"Aβ40 in CSF percent change from baseline, Median","Aβ40; single-dose 10 mg, 24 h",−14.3%
same,"Aβ40 in CSF percent change from baseline, Min-Max","Aβ40; single-dose 10 mg, 24 h",−31-−4%
same,"Aβ40 in CSF percent change from baseline, Mean (SD)","Aβ40; single-dose 10 mg, 34 h",−9.7 (14.72) %
same,"Aβ40 in CSF percent change from baseline, Median","Aβ40; single-dose 10 mg, 34 h",−12.5%
same,"Aβ40 in CSF percent change from baseline, Min-Max","Aβ40; single-dose 10 mg, 34 h",−25-10%
same,"Aβ40 in CSF percent change from baseline, Mean (SD)","Aβ40; single-dose 90 mg, 12 h",−14.2 (35.83) %
same,"Aβ40 in CSF percent change from baseline, Median","Aβ40; single-dose 90 mg, 12 h",−28.0%
same,"Aβ40 in CSF percent change from baseline, Min-Max","Aβ40; single-dose 90 mg, 12 h",−36-58%
same,"Aβ40 in CSF percent change from baseline, Mean (SD)","Aβ40; single-dose 90 mg, 24 h",−44.8 (12.48) %
same,"Aβ40 in CSF percent change from baseline, Median","Aβ40; single-dose 90 mg, 24 h",−49.2%
same,"Aβ40 in CSF percent change from baseline, Min-Max","Aβ40; single-dose 90 mg, 24 h",−55-−25%
same,"Aβ40 in CSF percent change from baseline, Mean (SD)","Aβ40; single-dose 90 mg, 34 h",−50.0 (8.87) %
same,"Aβ40 in CSF percent change from baseline, Median","Aβ40; single-dose 90 mg, 34 h",−45.4%
same,"Aβ40 in CSF percent change from baseline, Min-Max","Aβ40; single-dose 90 mg, 34 h",−60-−41%
same,"Aβ40 in CSF percent change from baseline, Mean (SD)","Aβ40; single-dose 300 mg, 12 h",−35.8 (16.40) %
same,"Aβ40 in CSF percent change from baseline, Median","Aβ40; single-dose 300 mg, 12 h",−44.1%
same,"Aβ40 in CSF percent change from baseline, Min-Max","Aβ40; single-dose 300 mg, 12 h",−54-−13%
same,"Aβ40 in CSF percent change from baseline, Mean (SD)","Aβ40; single-dose 300 mg, 24 h",−68.3 (10.65) %
same,"Aβ40 in CSF percent change from baseline, Median","Aβ40; single-dose 300 mg, 24 h",−72.5%
same,"Aβ40 in CSF percent change from baseline, Min-Max","Aβ40; single-dose 300 mg, 24 h",−79-−52%
same,"Aβ40 in CSF percent change from baseline, Mean (SD)","Aβ40; single-dose 300 mg, 34 h",−78.3 (4.75) %
same,"Aβ40 in CSF percent change from baseline, Median","Aβ40; single-dose 300 mg, 34 h",−79.3%
same,"Aβ40 in CSF percent change from baseline, Min-Max","Aβ40; single-dose 300 mg, 34 h",−84-−69%
same,"Aβ40 in CSF percent change from baseline, Mean (SD)","Aβ40; single-dose 750 mg, 12 h",−36.2 (13.58) %
same,"Aβ40 in CSF percent change from baseline, Median","Aβ40; single-dose 750 mg, 12 h",−38.6%
same,"Aβ40 in CSF percent change from baseline, Min-Max","Aβ40; single-dose 750 mg, 12 h",−53-−10%
same,"Aβ40 in CSF percent change from baseline, Mean (SD)","Aβ40; single-dose 750 mg, 24 h",−67.4 (15.54) %
same,"Aβ40 in CSF percent change from baseline, Median","Aβ40; single-dose 750 mg, 24 h",−70.6%
same,"Aβ40 in CSF percent change from baseline, Min-Max","Aβ40; single-dose 750 mg, 24 h",−82-−36%
same,"Aβ40 in CSF percent change from baseline, Mean (SD)","Aβ40; single-dose 750 mg, 34 h",−79.1 (8.88) %
same,"Aβ40 in CSF percent change from baseline, Median","Aβ40; single-dose 750 mg, 34 h",−82.3%
same,"Aβ40 in CSF percent change from baseline, Min-Max","Aβ40; single-dose 750 mg, 34 h",−87-−60%
same,"Aβ42 % change from baseline, Mean (SD)","Aβ42 [2]; 10 mg, E4 heterozygotes",−59 (11) %
same,"Aβ42 % change from baseline, Median","Aβ42 [2]; 10 mg, E4 heterozygotes",−64%
same,"Aβ42 % change from baseline, Mean (SD)","Aβ42 [2]; 10 mg, E4 non-carriers",−58 (11) %
same,"Aβ42 % change from baseline, Median","Aβ42 [2]; 10 mg, E4 non-carriers",−59%
same,"Aβ42 % change from baseline, Mean (SD)","Aβ42 [2]; 30 mg, E4 non-carriers",−80 (6) %
same,"Aβ42 % change from baseline, Median","Aβ42 [2]; 30 mg, E4 non-carriers",−82%
same,"Aβ42 % change from baseline, Mean (SD)","Aβ42 [2]; 90 mg, E4 heterozygotes",−87 (2) %
same,"Aβ42 % change from baseline, Median","Aβ42 [2]; 90 mg, E4 heterozygotes",−87%
same,"Aβ42 % change from baseline, Mean (SD)","Aβ42 [2]; 90 mg, E4 non-carriers",−86 (5) %
same,"Aβ42 % change from baseline, Median","Aβ42 [2]; 90 mg, E4 non-carriers",−87%
same,"Aβ42 % change from baseline, Mean (SD)","Aβ42 [2]; 300 mg, E4 heterozygotes (n 1)",−89%
same,"Aβ42 % change from baseline, Median","Aβ42 [2]; 300 mg, E4 heterozygotes (n 1)",−89%
same,"Aβ42 % change from baseline, Mean (SD)","Aβ42 [2]; 300 mg, E4 non-carriers",−92 (1) %
same,"Aβ42 % change from baseline, Median","Aβ42 [2]; 300 mg, E4 non-carriers",−91%
